Reference: patent US20220162191A1, “SMALL MOLECULE MODULATORS OF IL-17” (LEO PHARMA A/S, priority 2019, published 2022)

biological target: T1, human IL-17AA (Homo sapiens, UniProt Q16552); test: IL-8 release assay in human epithelial keratinocytes adult (HEKa); type: cell-based; conditions: 3 ng/ml human IL-17AA + 10 ng/ml human TNFalpha, 68-72 h, IL-8 by HTRF, read-out: Rel EC50 L-8 release assay
T1 construct: host or cells: HEK (human embryonic kidney) cells
T1 sequence (Q16552 24-155) 1: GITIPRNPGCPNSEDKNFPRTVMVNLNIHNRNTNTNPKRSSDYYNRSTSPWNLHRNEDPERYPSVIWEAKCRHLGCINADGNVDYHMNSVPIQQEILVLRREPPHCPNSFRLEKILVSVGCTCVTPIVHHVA
T1 sequence (Q16552 24-155) 2: T1 sequence (Q16552 24-155) 1
Summary of the method: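 Adult human keratinocytes in Epilife with HKGS minus hydrocortisone, treated with compound then stimulated with final 3 ng/ml HEK-derived human IL-17AA plus 10 ng/ml TNF-alpha for 68–72 h at 37 °C; TNF-alpha alone defines 100% inhibition. Secreted IL-8 by HTRF; relative IC50 and Emax from four-parameter fits.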

| EC50 | Structure (SMILES) |
| --- | --- |
| 100 to 1000 nM | Cn1cnnc1-c1ccc(NC(=O)C(Cc2cc(-c3cccc(C4CC4)c3)ccc2Cl)NC(=O)c2ccnn2C)cc1 (centres unmarked) [Example 170, N-[1-[[2-chloro-5-(3-cyclopropylphenyl)phenyl]methyl]-2-[4-(4-methyl-1,2,4-triazol-3-yl)anilino]-2-oxo-ethyl]-2-methyl-pyrazole-3-carboxamide] |
| < 100 nM | Cc1cnn(C)c1-c1ccc(NC(=O)[C@@H](NC(=O)C2(F)CC2)[C@@H]2CCCc3ccc(-c4ccnc(N5C[C@H]6C[C@@H]5CO6)c4)cc32)cc1 [Example 399, N-[(1S)-2-[4-(2,4-dimethylpyrazol-3-yl)anilino]-1-[(1R)-7-[2-[(1R,4R)-2-oxa-5-azabicyclo[2.2.1]heptan-5-yl]-4-pyridyl]tetralin-1-yl]-2-oxo-ethyl]-1-fluoro-cyclopropanecarboxamide] |
| > 1000 nM | Cc1cnn(C)c1-c1ccc(NC(=O)[C@@H](NC(=O)C2(F)CC2)[C@H](C)c2cccc(-c3cc(N4C[C@@H]5C[C@H]4CO5)ncn3)c2)cc1 [Example 342, N-[(1S,2R)-1-[[4-(2,4-dimethylpyrazol-3-yl)phenyl]carbamoyl]-2-[3-[6-[(1S,4S)-2-oxa-5-azabicyclo[2.2.1]heptan-5-yl]pyrimidin-4-yl]phenyl]propyl]-1-fluoro-cyclopropanecarboxamide] |
| 100 to 1000 nM | Cn1cncc1-c1ccc(NC(=O)[C@H](Cc2cc(-c3ccnc(C(O)C4CC4)c3)ccc2Cl)NC(=O)C2(F)CC2)cc1 (stereo partly drawn) [Example 124, N-[(1S)-1-[[2-chloro-5-[2-[cyclopropyl(hydroxy)methyl]-4-pyridyl]phenyl]methyl]-2-[4-(3-methylimidazol-4-yl)anilino]-2-oxo-ethyl]-1-fluoro-cyclopropanecarboxamide] |
| < 100 nM | Cc1nocc1C(=O)N[C@@H](Cc1cc(-c2ccc(=O)n(C(C)C)c2)ccc1Cl)C(=O)Nc1ccc(-c2cncn2C)c(O)c1 [Example 132, N-[(1S)-1-[[2-chloro-5-(1-isopropyl-6-oxo-3-pyridyl)phenyl]methyl]-2-[3-hydroxy-4-(3-methylimidazol-4-yl)anilino]-2-oxo-ethyl]-3-methyl-isoxazole-4-carboxamide] |
| < 100 nM | Cc1n[nH]c(C)c1-c1ccc(NC(=O)[C@@H](NC(=O)c2ccnn2C)[C@@H]2CCc3ccc(-c4cnn(C(C)(C)C)c4)cc32)cc1 [Example 4, N-[(1S)-1-[(1R)-6-(1-tert-butylpyrazol-4-yl)indan-1-yl]-2-[4-(3,5-dimethyl-1H-pyrazol-4-yl)anilino]-2-oxo-ethyl]-2-methyl-pyrazole-3-carboxamide] |
| 100 to 1000 nM | Cc1n[nH]c(C)c1-c1ccc(NC(=O)[C@@H](NC(=O)c2ccnn2C)[C@@H]2CCc3ccc(-n4cnc(C(C)C)c4)cc32)cc1 [Example 361, N-[(1S)-2-[4-(3,5-dimethyl-1H-pyrazol-4-yl)anilino]-1-[(1R)-6-(4-isopropylimidazol-1-yl)indan-1-yl]-2-oxo-ethyl]-2-methyl-pyrazole-3-carboxamide] |
| < 100 nM | Cc1nocc1C(=O)NC(Cc1cc(-c2ccc(=O)n(C(C)C)c2)ccc1Cl)C(=O)Nc1ccc(-c2cncn2C)c(Cl)c1 (centres unmarked) [Example 103, N-[1-[[2-chloro-5-(1-isopropyl-6-oxo-3-pyridyl)phenyl]methyl]-2-[3-chloro-4-(3-methylimidazol-4-yl)anilino]-2-oxo-ethyl]-3-methyl-isoxazole-4-carboxamide] |
| < 100 nM | Cc1cnn(C)c1-c1ccc(NC(=O)[C@@H](NC(=O)C2(F)CC2)[C@@H](c2cccc(-c3cncc(N4C[C@@H]5C[C@H]4CO5)n3)c2)C2CC2)cc1 [Example 350, N-[(1S)-1-[(R)-cyclopropyl-[3-[6-[(1S,4S)-2-oxa-5-azabicyclo[2.2.1]heptan-5-yl]pyrazin-2-yl]phenyl]methyl]-2-[4-(2,4-dimethylpyrazol-3-yl)anilino]-2-oxo-ethyl]-1-fluoro-cyclopropanecarboxamide] |
| > 1000 nM | CC(C)n1cc(-c2cccc(C(c3ccccc3)C(NC(=O)c3ccnn3C)C(=O)Nc3ccc(-c4cncn4C)cc3)c2)ccc1=O (single isomer, unassigned; diastereomer 3) [Example 233, N-[1-[[3-(1-isopropyl-6-oxo 3-pyridyl)phenyl]-phenyl-methyl]-2-[4-(3-methylimidazol-4-yl)anilino] 2-oxo-ethyl]-2-methyl-pyrazole-3-carboxamide (Diastereomer 3)] |
| > 1000 nM | CC(C)n1cc(-c2ccc(Cl)c(CC(NC(=O)C(F)(F)c3ccccc3)C(=O)Nc3ccc(-c4nncn4C)cc3)c2)ccc1=O (centres unmarked) [Example 97, 3-[2-chloro-5-(1-isopropyl-6-oxo-3-pyridyl)phenyl]-2-[(2,2-difluoro-2-phenyl-acetyl)amino]-N-[4-(4-methyl-1,2,4-triazol-3-yl)phenyl]propanamide] |

More lines, now with the values behind:

| Structure (SMILES) | EC50 |
| --- | --- |
| Cc1n[nH]c(C)c1-c1ccc(NC(=O)[C@@H](NC(=O)C2(F)CC2)[C@@H]2CCc3ccc(-c4ccnc(N5CC6(COC6)C5)c4)cc32)cc1 [Example 364, N-[(1S)-2-[4-(3,5-dimethyl-1H-pyrazol-4-yl)anilino]-1-[(1R)-6-[2-(6-oxa-2-azaspiro[3.3]heptan-2-yl)-4-pyridyl]indan-1-yl]-2-oxo-ethyl]-1-fluoro-cyclopropanecarboxamide] | < 100 nM |
| CC(C)N(C)c1cc(-c2ccc(Cl)c(CC(NC(=O)c3ccnn3C)C(=O)Nc3ccc(-c4cncn4C)cc3)c2)ccn1 (centres unmarked) [Example 159, N-[1-[[2-chloro-5-[2-[isopropyl(methyl)amino]-4-pyridyl]phenyl]methyl]-2-[4-(3-methylimidazol-4-yl)anilino]-2-oxo-ethyl]-2-methyl-pyrazole-3-carboxamide] | < 100 nM |
| Cc1n[nH]c(C)c1-c1ccc(NC(=O)[C@@H](NC(=O)C2(F)CC2)[C@@H]2CCc3ccc(-c4cc(N5CC(F)(F)C5)ncn4)cc32)cc1 [Example 375, N-[(1S)-1-[(1R)-6-[6-(3,3-difluoroazetidin-1-yl)pyrimidin-4-yl]indan-1-yl]-2-[4-(3,5-dimethyl-1H-pyrazol-4-yl)anilino]-2-oxo-ethyl]-1-fluoro-cyclopropanecarboxamide] | 100 to 1000 nM |
| Cc1nocc1C(=O)N[C@@H](Cc1cc(-c2ccnc(C(O)C3CC3)c2)ccc1Cl)C(=O)Nc1ccc(-n2ccnc2C)cc1 (stereo partly drawn) [Example 125, N-[(1S)-1-[[2-chloro-5-[2-[cyclopropyl(hydroxy)methyl]-4-pyridyl]phenyl]methyl]-2-[4-(2-methylimidazol-1-yl)anilino]-2-oxo-ethyl]-3-methyl-isoxazole-4-carboxamide] | 100 to 1000 nM |
| Cc1n[nH]c(C)c1-c1ccc(NC(=O)[C@@H](NC(=O)c2ccnn2C)[C@@H]2CCc3ccc(-c4ccnc(C(C)(C)O)c4)cc32)cc1 [Example 16, N-[(1S)-2-[4-(3,5-dimethyl-1H-pyrazol-4-yl)anilino]-1-[(1R)-6-[2-(1-hydroxy-1-methyl-ethyl)-4-pyridyl]indan-1-yl]-2-oxo-ethyl]-2-methyl-pyrazole-3-carboxamide] | < 100 nM |
| Cn1cnnc1-c1ccc(NC(=O)C(Cc2cc(-c3cccc(CC4CC4)c3)ccc2Cl)NC(=O)c2ccnn2C)cc1 (centres unmarked) [Example 169, N-[1-[[2-chloro-5-[3-(cyclopropylmethyl)phenyl]phenyl]methyl]-2-[4-(4-methyl-1,2,4-triazol-3-yl)anilino]-2-oxo-ethyl]-2-methyl-pyrazole-3-carboxamide] | 100 to 1000 nM |
| CC(C)n1cc(-c2ccc(Cl)c(C[C@H](NC(=O)C3(F)CCC3)C(=O)Nc3ccc(-c4nncn4C)cc3)c2)ccc1=O [Example 148, N-[(1S)-1-[[2-chloro-5-(1-isopropyl-6-oxo-3-pyridyl)phenyl]methyl]-2-[4-(4-methyl-1,2,4-triazol-3-yl)anilino]-2-oxo-ethyl]-1-fluoro-cyclobutanecarboxamide] | > 1000 nM |
| Cc1n[nH]c(C)c1-c1ccc(NC(=O)[C@@H](NC(=O)c2ccnn2C)[C@@H]2CCc3ccc(-c4ccc(CN5CCC5)cc4)cc32)cc1 [Example 21, N-[(1S)-1-[(1R)-6-[4-(azetidin-1-ylmethyl)phenyl]indan-1-yl]-2-[4-(3,5-dimethyl-1H-pyrazole-4-yl)anilino]-2-oxo-ethyl]-2-methyl-pyrazole-3-carboxamide] | < 100 nM |
| CC(C)n1cc(-c2ccc(Cl)c(C[C@H](NC(=O)c3ccnn3C)C(=O)Nc3ccc(-c4cn[nH]c4)c(F)c3)c2)ccc1=O [Example 138, N-[(1S)-1-[[2-chloro-5-(1-isopropyl-6-oxo-3-pyridyl)phenyl]methyl]-2-[3-fluoro-4-(1H-pyrazol-4-yl)anilino]-2-oxo-ethyl]-2-methyl-pyrazole-3-carboxamide] | 100 to 1000 nM |
| CC(C)n1cc(-c2ccc(Cl)c(C[C@H](NC(=O)CC3CCC3)C(=O)Nc3ccc(-c4nncn4C)cc3)c2)ccc1=O [Example 127, (2S)-3-[2-chloro-5-(1-isopropyl-6-oxo-3-pyridyl)phenyl]-2-[(2-cyclobutylacetyl)amino]-N-[4-(4-methyl-1,2,4-triazol-3-yl)phenyl]propanamide] | > 1000 nM |
| Cc1cnn(C)c1-c1ccc(NC(=O)[C@@H](NC(=O)C2(F)CC2)[C@@H]2CCc3ccc(-c4cc(N5C[C@@H]6C[C@H]5CO6)cnn4)cc32)cc1 [Example 383, N-[(1S)-2-[4-(2,4-dimethylpyrazol-3-yl)anilino]-1-[(1R)-6-[5-[(1S,4S)-2-oxa-5-azabicyclo[2.2.1]heptan-5-yl]pyridazin-3-yl]indan-1-yl]-2-oxo-ethyl]-1-fluoro-cyclopropanecarboxamide] | > 1000 nM |
| CC(C)n1cc(-c2ccc(Cl)c(CC(NC(=O)c3conc3C(F)(F)F)C(=O)Nc3ccc(-c4nncn4C)cc3)c2)ccc1=O (centres unmarked) [Example 95, N-[1-[[2-chloro-5-(1-isopropyl-6-oxo-3-pyridyl)phenyl]methyl]-2-[4-(4-methyl-1,2,4-triazol-3-yl)anilino]-2-oxo-ethyl]-3-(trifluoromethyl)isoxazole-4-carboxamide] | > 1000 nM |
